Among the data in ChEMBL document CHEMBL1151471, “Vancomycin-resistant Staphylococcus aureus isolates associated with Inc18-like vanA plasmids in Michigan” (2008) are MIC values, retold here.

≈ marks a conversion by molar mass, not a printed value. Some results are limits rather than exact numbers.

What all share (assay type): functional
The subject of test [1] is Staphylococcus aureus. Briefly: Antibacterial activity against vancomycin-resistant Staphylococcus aureus HIP15178 isolated from patients surgical wound by broth microdilution method. (In broth dilution the organism is exposed to a series of concentrations in liquid medium.)
Test [2] concerns Staphylococcus aureus. Nature of the test: Antibacterial activity against vancomycin-resistant Staphylococcus aureus AIS2006049 isolated from patients arm wound by broth microdilution method.
In test [3] the test system is Staphylococcus aureus. Briefly: Antibacterial activity against vancomycin-resistant Staphylococcus aureus HIP14300 isolated from patients foot wound by broth microdilution method.
The test system of test [4] is Staphylococcus aureus. Nature of the test: Antibacterial activity against vancomycin-resistant Staphylococcus aureus AIS2006032 isolated from patients foot wound by broth microdilution method.
Test [5] relates to Enterococcus faecalis. Briefly: Antibacterial activity against Enterococcus faecalis HIP15179 coisolated with vancomycin-resistant Staphylococcus aureus by broth microdilution method.
Test [6] has as its system Enterococcus avium. Nature of the test: Antibacterial activity against Enterococcus avium AIS2007004 isolated from patients rectum by broth microdilution method.
The test system of test [7] is Enterococcus faecalis. Nature of the test: Antibacterial activity against Enterococcus faecalis HIP14333 isolated from patients rectum by broth microdilution method.
Test [8] concerns Enterococcus faecalis. Briefly: Antibacterial activity against Enterococcus faecalis AIS2007003 isolated from patients rectum by broth microdilution method.

Take `CCC[C@@H]1C[C@@H](C(=O)N[C@@H]([C@H]2O[C@H](SC)[C@H](O)[C@@H](O)[C@H]2O)[C@H](C)Cl)N(C)C1` [CLINDAMYCIN]: the MIC in test [1], in test [2], in test [3] and in test [4] was greater than 16 µg/mL throughout.

Turning to `C[C@H]1COc2c(N3CCN(C)CC3)c(F)cc3c(=O)c(C(=O)O)cn1c23.C[C@H]1COc2c(N3CCN(C)CC3)c(F)cc3c(=O)c(C(=O)O)cn1c23.O` [LEVOFLOXACIN], the MIC was 8 µg/mL in test [5]; greater than 16 µg/mL in test [1]; 8 µg/mL in test [6]; greater than 8 µg/mL in test [7]; 8 µg/mL in test [2]; greater than 16 µg/mL in test [3]. Also, the minimal inhibitory concentration (MIC) in test [8] was greater than 8 µg/mL; in test [4] it was greater than 16 µg/mL.

Take `CC[C@H]1OC(=O)[C@H](C)[C@@H](O[C@H]2C[C@@](C)(OC)[C@@H](O)[C@H](C)O2)[C@H](C)[C@@H](O[C@@H]2O[C@H](C)C[C@H](N(C)C)[C@H]2O)[C@](C)(O)C[C@@H](C)C(=O)[C@H](C)[C@@H](O)[C@]1(C)O` [ERYTHROMYCIN]: the MIC in test [5], in test [1], in test [6], in test [7], in test [2] and in test [3] was greater than 8 µg/mL each time. Further, the MIC in test [8] and in test [4] was greater than 8 µg/mL each time.

In turn, `CC(=O)NC[C@H]1CN(c2ccc(N3CCOCC3)c(F)c2)C(=O)O1` [LINEZOLID] returned a minimal inhibitory concentration (MIC) in test [6] of 2 µg/mL (≈ 5.93 µM).

On to `C[C@H]1c2cccc(O)c2C(=O)C2=C(O)[C@]3(O)C(=O)C(C(N)=O)=C(O)[C@@H](N(C)C)[C@@H]3[C@@H](O)[C@@H]21.O` [DOXYCYCLINE], for which the MIC in test [5] was no more than 2 µg/mL; in test [1], no more than 0.5 µg/mL; in test [6], 8 µg/mL; in test [7], 8 µg/mL; in test [2] it was no more than 1 µg/mL; in test [3], no more than 0.25 µg/mL. Also, the results for the minimal inhibitory concentration (MIC) in test [8] and in test [4] were 4 µg/mL and 1 µg/mL, respectively.

As for GENTAMICIN, the MIC in test [5] was greater than 500 µg/mL; in test [1], less than 2 µg/mL; in test [6], greater than 500 µg/mL; in test [7], greater than 500 µg/mL; in test [2] it was less than 2 µg/mL; in test [3], less than 2 µg/mL. In addition, the MIC in test [8] was greater than 500 µg/mL; in test [4] it was less than 2 µg/mL.

In the case of `Cc1onc(-c2ccccc2)c1C(=O)N[C@@H]1C(=O)N2[C@@H]1SC(C)(C)[C@@H]2C(=O)O` [OXACILLIN], the MIC in test [1], in test [2], in test [3] and in test [4] was greater than 16 µg/mL in each case.

As to `CO[C@H]1/C=C/O[C@@]2(C)Oc3c(C)c(O)c4c(O)c(c(/C=N/N5CCN(C)CC5)c(O)c4c3C2=O)NC(=O)/C(C)=C\C=C\[C@H](C)[C@H](O)[C@@H](C)[C@@H](O)[C@@H](C)[C@H](OC(C)=O)[C@@H]1C` [RIFAMPIN], the MIC is 2 µg/mL (≈ 2.43 µM) in test [5]; no more than 0.5 µg/mL in test [1]; 1 µg/mL (≈ 1.22 µM) in test [6]; 1 µg/mL (≈ 1.22 µM) in test [7]; no more than 0.5 µg/mL in test [2]; no more than 0.5 µg/mL in test [3]. In addition, the MIC in test [8] is 1 µg/mL (≈ 1.22 µM); in test [4], no more than 0.5 µg/mL.

Take `CN[C@@H]1[C@H](O[C@H]2[C@H](O[C@H]3[C@H](O)[C@@H](O)[C@H](N=C(N)N)[C@@H](O)[C@@H]3N=C(N)N)O[C@@H](C)[C@]2(O)C=O)O[C@@H](CO)[C@H](O)[C@H]1O` [STREPTOMYCIN]: the MIC in test [5] is greater than 1000 µg/mL; in test [6] it was no more than 1000 µg/mL; in test [7], no more than 1000 µg/mL; in test [8], greater than 1000 µg/mL.

As for `CCCCCCCCCC(=O)N[C@@H](Cc1c[nH]c2ccccc12)C(=O)N[C@H](CC(N)=O)C(=O)N[C@@H](CC(=O)O)C(=O)N[C@@H]1C(=O)NCC(=O)N[C@@H](CCCN)C(=O)N[C@@H](CC(=O)O)C(=O)N[C@H](C)C(=O)N[C@@H](CC(=O)O)C(=O)NCC(=O)N[C@H](CO)C(=O)N[C@@H]([C@H](C)CC(=O)O)C(=O)N[C@@H](CC(=O)c2ccccc2N)C(=O)O[C@@H]1C`, the MIC in test [5] was 1 µg/mL (≈ 0.617 µM); in test [1], no more than 0.5 µg/mL; in test [6], 1 µg/mL (≈ 0.617 µM); in test [2], 2 µg/mL (≈ 1.23 µM); in test [3], no more than 0.5 µg/mL; in test [8] it was 2 µg/mL (≈ 1.23 µM). In test [4], this compound yielded an MIC of 1 µg/mL (≈ 0.617 µM).

Regarding `CN[C@H](CC(C)C)C(=O)N[C@H]1C(=O)N[C@@H](CC(N)=O)C(=O)N[C@H]2C(=O)N[C@H]3C(=O)N[C@H](C(=O)N[C@H](C(=O)O)c4cc(O)cc(O)c4-c4cc3ccc4O)[C@H](O)c3ccc(c(Cl)c3)Oc3cc2cc(c3O[C@@H]2O[C@H](CO)[C@@H](O)[C@H](O)[C@H]2O[C@H]2C[C@](C)(N)[C@H](O)[C@H](C)O2)Oc2ccc(cc2Cl)[C@H]1O` [VANCOMYCIN], the minimum inhibitory concentration (MIC) is 512 µg/mL (≈ 353 µM) in test [5]; 512 µg/mL (≈ 353 µM) in test [1]; 256 µg/mL (≈ 177 µM) in test [6]; 1020 µg/mL (≈ 707 µM) in test [7]; 512 µg/mL (≈ 353 µM) in test [2]; 256 µg/mL (≈ 177 µM) in test [3]. Also, the minimum inhibitory concentration (MIC) in test [8] was greater than 512 µg/mL; in test [4] it was 1020 µg/mL (≈ 707 µM).

Broadly, the MIC is the lowest concentration that inhibits growth of the organism. Low values mean greater potency, high ones weaker potency.
